Laboratory results from patent publication US12491175B2, “Composition containing carotenoids and use thereof for protecting neurons against neurodegeneration” (priority 2019, dated 2025).

Assays:
HT22 neuronal cells [1] = settings: for effect on cell death of HT22 neuronal cells induced by glutamate: glutamate at 10 mM, FIG. 1
Procedure: The HT22 neuronal cells (mouse hippocampus neuronal line) were treated for two hours with 50 μM of pigment, followed or not by the addition of 10 mM glutamate for 24 hours at 37° C. Cell viability (in %) was measured by an MTS test (by means of a CellTiter 96®Aqueous non-Radioactive Cell Proliferation Assay kit from Promega).
The HT22 cells were treated for 2 hours either with diadinoxanthin (FIG. 2) or violaxanthin (FIG. 3) or diatoxanthin (comparative test shown in FIG. 4) at different concentrations. For each of the concentrations, cell death was then induced by glutamate (10 mM) for 24 hours at 37° C. Cell viability (in %) was measured by an MTS test. The values shown are the mean±standard deviation (n=3).
The EC50 (half maximal effective concentration) is the concentration at which a molecule induces a response halfway between the baseline and the maximum effect after a certain exposure time thereof. This determines its efficacy.

HT22 neuronal cells [2] = assay: Toxicity of pigment alone on HT22 neuronal cells (MTS cell viability); assay type: cell-based, mouse; settings: 50 μM pigment, no glutamate; FIG. 1 white rectangles

Compound | effect on cell death of HT22 neuronal cells induced by glutamate (HT22 neuronal cells [1]) | EC50 (HT22 neuronal cells [1]; read-out: EC50 (half maximal effective concentration), dose-response, 2 hours pre-treatment, then glutamate 10 mM for 24 hours at 37° C., FIG. 2, FIG. 3) [µM] | toxicity of pigment alone (cell viability) (HT22 neuronal cells [2])
CC1=C(C#C/C(C)=C/C=C/C(C)=C/C=C/C=C(C)/C=C/C=C(C)/C=C/[C@@]23O[C@]2(C)C[C@@H](O)CC3(C)C)C(C)(C)C[C@H](O)C1 [diadinoxanthin] | protective effect | 22 | non-toxic
CC(/C=C/C=C(C)/C=C/[C@@]12O[C@]1(C)C[C@@H](O)CC2(C)C)=C\C=C\C=C(C)\C=C\C=C(C)\C=C\[C@@]12O[C@]1(C)C[C@@H](O)CC2(C)C [violaxanthin] | protective effect | – | non-toxic
